Measured values as given in the supplement of paper PMC11208160.

Experiment: recombinant barcode read abundance after kanamycin selection (control-corrected) (log10(CPM+1)); higher = more efficient recombination; sequences stand for … in AGTGCAGAGAAAATCGGCCAGTTTTCTCTGCCTGCAGTCCGCATGCCGT…AGATTTATGCAGCGGACTGCCTTTCTCCCAAAGTGATAAACCGGACAGTATCATGGACCGGTTTTCCCGGTAATCCGTATTTGCAAGGTTGGTTTCACT; site = the 11-nt target
Procedure: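 Pooled E. coli target-specificity screen for the IS621 bridge recombinase. Each library plasmid pairs an 11-nt target (CT core) with a bridge RNA whose target-binding loop (9-nt LTG + 4-nt RTG) is reprogrammed; the rest of the 177-nt WT IS621 bridge RNA scaffold is fixed. The plasmid is co-electroporated with a WT donor plasmid; recombinase is induced with 0.1 mM IPTG and recombinants are selected on kanamycin. Recombinant barcodes are sequenced, converted to CPM, averaged over two biological replicates and corrected by the unselected control CPM. Molecule = full bridge RNA written as DNA: LTG = specificity nt 1-9, RTG = reverse complement of specificity nt 8-11, in the WT scaffold.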
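Note: IS621 recombinase and bridge RNA in Escherichia coli cells.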

With “AACGCTCCTTGGGTTCTAACCTGTTGCCT (site AGCGCTCCTAG)” the “recombinant barcode read abundance (log10)” value was 0.833.

In the case of “AACGCTCCTTGGGTTCTAACCTGTTGCCT (site ATCGCTCCTAG)”, the “recombinant barcode read abundance (log10)” value is reported as 0.239.

With “AACGCTCCTTGGGTTCTAACCTGTTGCGG (site AACGCTCCTCC)” the “recombinant barcode read abundance (log10)” value was 0.503.

In the case of “AACGCTCCTTGGGTTCTAACCTGTTGCGG (site CACGGTCCTCC)”, the “recombinant barcode read abundance (log10)” value is reported as 0.0943.

For “AACTAAGCTTGGGTTCTAACCTGTTGCCT (site AACTAAGCTAG)”, the “recombinant barcode read abundance (log10)” value was 0.336.

With “AACTAAGCTTGGGTTCTAACCTGTTGCCT (site GGAAGCCCTTA)” the “recombinant barcode read abundance (log10)” value was 0.325.

With “AACTCAACTTGGGTTCTAACCTGTTGCCT (site AACTAAACTAG)” the “recombinant barcode read abundance (log10)” value was 0.108.

With “AACTCAACTTGGGTTCTAACCTGTTGCCT (site AACTCAACTAG)” the “recombinant barcode read abundance (log10)” value was 0.288.

With “AACTCAACTTGGGTTCTAACCTGTTGCCT (site AACTGAACTAG)” the “recombinant barcode read abundance (log10)” value was 0.18.

For “AACTCAACTTGGGTTCTAACCTGTTGCCT (site AACTTAACTAG)”, the “recombinant barcode read abundance (log10)” value was 0.107.

With “AAGAAAGCTTGGGTTCTAACCTGTTGCCT (site AAGAAAGCTAG)” the “recombinant barcode read abundance (log10)” value was 1.82.

In the case of “AAGAAAGCTTGGGTTCTAACCTGTTGCCT (site AAGACAGCTAG)”, the “recombinant barcode read abundance (log10)” value is reported as 0.0854.

With “AAGAAAGCTTGGGTTCTAACCTGTTGCCT (site AAGAGAGCTAG)” the “recombinant barcode read abundance (log10)” value was 0.113.

With “AAGAAAGCTTGGGTTCTAACCTGTTGCCT (site AAGATAGCTAG)” the “recombinant barcode read abundance (log10)” value was 0.464.

In the case of “AAGACCTCTTGGGTTCTAACCTGTTGCCT (site AAGACCTCTAG)”, the “recombinant barcode read abundance (log10)” value is reported as 1.67.

With “AAGACCTCTTGGGTTCTAACCTGTTGCCT (site TAGACCTCTAG)” the “recombinant barcode read abundance (log10)” value was 1.29.

In the case of “AAGATACCTTGGGTTCTAACCTGTTGCCT (site AAGATACCTAG)”, the “recombinant barcode read abundance (log10)” value is reported as 2.23.

With “AAGATACCTTGGGTTCTAACCTGTTGCCT (site ATGATACCTAG)” the “recombinant barcode read abundance (log10)” value was 0.0427.

In the case of “AAGCACTCTTGGGTTCTAACCTGTTGCCT (site AAGCAATCTAG)”, the “recombinant barcode read abundance (log10)” value is reported as 0.195.

For “AAGCACTCTTGGGTTCTAACCTGTTGCCT (site AAGCACTCTAG)”, the “recombinant barcode read abundance (log10)” value was 2.58.

For “AAGCACTCTTGGGTTCTAACCTGTTGCCT (site AAGCAGTCTAG)”, the “recombinant barcode read abundance (log10)” value was 0.107.

For “AAGCACTCTTGGGTTCTAACCTGTTGCCT (site AAGCATTCTAG)”, the “recombinant barcode read abundance (log10)” value was 0.

For “AAGCAGTCTTGGGTTCTAACCTGTTGCCT (site AAGCAATCTAG)”, the “recombinant barcode read abundance (log10)” value was 0.44.

With “AAGCAGTCTTGGGTTCTAACCTGTTGCCT (site AAGCACTCTAG)” the “recombinant barcode read abundance (log10)” value was 0.206.

In the case of “AAGCAGTCTTGGGTTCTAACCTGTTGCCT (site AAGCAGTCTAG)”, the “recombinant barcode read abundance (log10)” value is reported as 2.5.

For “AAGCAGTCTTGGGTTCTAACCTGTTGCCT (site AAGCATTCTAG)”, the “recombinant barcode read abundance (log10)” value was 0.162.

For “AAGCATCCTTGGGTTCTAACCTGTTGCCT (site AAGCATCCTAG)”, the “recombinant barcode read abundance (log10)” value was 1.07.

With “AAGCATCCTTGGGTTCTAACCTGTTGCCT (site ACGCATCCTAG)” the “recombinant barcode read abundance (log10)” value was 0.192.

In the case of “AAGCATCCTTGGGTTCTAACCTGTTGCCT (site AGGCATCCTAG)”, the “recombinant barcode read abundance (log10)” value is reported as 0.358.

For “AAGCATCCTTGGGTTCTAACCTGTTGCCT (site ATGCATCCTAG)”, the “recombinant barcode read abundance (log10)” value was 0.00873.

For “AAGCATTCTTGGGTTCTAACCTGTTGCCT (site AAGCAATCTAG)”, the “recombinant barcode read abundance (log10)” value was 0.379.

For “AAGCATTCTTGGGTTCTAACCTGTTGCCT (site AAGCACTCTAG)”, the “recombinant barcode read abundance (log10)” value was 0.111.

In the case of “AAGCATTCTTGGGTTCTAACCTGTTGCCT (site AAGCAGTCTAG)”, the “recombinant barcode read abundance (log10)” value is reported as 0.254.

With “AAGCATTCTTGGGTTCTAACCTGTTGCCT (site AAGCATTCTAG)” the “recombinant barcode read abundance (log10)” value was 1.81.

For “AAGCGCTCTTGGGTTCTAACCTGTTGCTG (site AAGCGCTCTCA)”, the “recombinant barcode read abundance (log10)” value was 2.39.

In the case of “AAGCGCTCTTGGGTTCTAACCTGTTGCTG (site TTCTATGCTAC)”, the “recombinant barcode read abundance (log10)” value is reported as 0.542.

For “AAGCGTACTTGGGTTCTAACCTGTTGCCT (site AAGCGTACTAG)”, the “recombinant barcode read abundance (log10)” value was 1.92.

For “AAGCGTACTTGGGTTCTAACCTGTTGCCT (site AAGCGTCCTAG)”, the “recombinant barcode read abundance (log10)” value was 0.141.

In the case of “AAGCGTACTTGGGTTCTAACCTGTTGCCT (site AAGCGTGCTAG)”, the “recombinant barcode read abundance (log10)” value is reported as 0.0421.

For “AAGCGTACTTGGGTTCTAACCTGTTGCCT (site AAGCGTTCTAG)”, the “recombinant barcode read abundance (log10)” value was 0.128.

For “AAGCGTGCTTGGGTTCTAACCTGTTGCCT (site AAGCGTACTAG)”, the “recombinant barcode read abundance (log10)” value was 1.38.

With “AAGCGTGCTTGGGTTCTAACCTGTTGCCT (site AAGCGTCCTAG)” the “recombinant barcode read abundance (log10)” value was 0.197.

For “AAGCGTGCTTGGGTTCTAACCTGTTGCCT (site AAGCGTGCTAG)”, the “recombinant barcode read abundance (log10)” value was 1.7.

With “AAGCGTGCTTGGGTTCTAACCTGTTGCCT (site AAGCGTTCTAG)” the “recombinant barcode read abundance (log10)” value was 0.216.

For “AAGCGTTCTTGGGTTCTAACCTGTTGCCT (site AAGCGTACTAG)”, the “recombinant barcode read abundance (log10)” value was 0.0209.

In the case of “AAGCGTTCTTGGGTTCTAACCTGTTGCCT (site AAGCGTCCTAG)”, the “recombinant barcode read abundance (log10)” value is reported as 0.111.

In the case of “AAGCGTTCTTGGGTTCTAACCTGTTGCCT (site AAGCGTGCTAG)”, the “recombinant barcode read abundance (log10)” value is reported as 0.0909.

In the case of “AAGCGTTCTTGGGTTCTAACCTGTTGCCT (site AAGCGTTCTAG)”, the “recombinant barcode read abundance (log10)” value is reported as 1.54.

With “AAGCTGCCTTGGGTTCTAACCTGTTGCCT (site AAGCTGCCTAG)” the “recombinant barcode read abundance (log10)” value was 1.49.

For “AAGCTGCCTTGGGTTCTAACCTGTTGCCT (site GAGCTGCCTAA)”, the “recombinant barcode read abundance (log10)” value was 0.049.

In the case of “AAGGAACCTTGGGTTCTAACCTGTTGCCT (site AAGGAACCTAG)”, the “recombinant barcode read abundance (log10)” value is reported as 2.59.

In the case of “AAGGAACCTTGGGTTCTAACCTGTTGCCT (site CAGGAACCTAG)”, the “recombinant barcode read abundance (log10)” value is reported as 1.23.

For “AAGGAACCTTGGGTTCTAACCTGTTGCCT (site GAGGAACCTAG)”, the “recombinant barcode read abundance (log10)” value was 0.951.

In the case of “AAGGAACCTTGGGTTCTAACCTGTTGCCT (site TAGGAACCTAG)”, the “recombinant barcode read abundance (log10)” value is reported as 2.11.

In the case of “AAGGAGACTTGGGTTCTAACCTGTTGCCT (site AAAGGGACTAG)”, the “recombinant barcode read abundance (log10)” value is reported as 0.116.

In the case of “AAGGAGACTTGGGTTCTAACCTGTTGCCT (site AAGGAGACTAG)”, the “recombinant barcode read abundance (log10)” value is reported as 2.12.

In the case of “AAGGCTTCTTGGGTTCTAACCTGTTGCCT (site AAGGCTACTAG)”, the “recombinant barcode read abundance (log10)” value is reported as 0.171.

With “AAGGCTTCTTGGGTTCTAACCTGTTGCCT (site AAGGCTTCTAG)” the “recombinant barcode read abundance (log10)” value was 1.4.

In the case of “AAGGGGTCTTGGGTTCTAACCTGTTGCCT (site AAGGGGTCTAG)”, the “recombinant barcode read abundance (log10)” value is reported as 2.93.

With “AAGGGGTCTTGGGTTCTAACCTGTTGCCT (site TACGGGTCTAG)” the “recombinant barcode read abundance (log10)” value was 0.112.

In the case of “AAGGTCCCTTGGGTTCTAACCTGTTGCCA (site AAGGTCCCTTG)”, the “recombinant barcode read abundance (log10)” value is reported as 1.85.

In the case of “AAGGTCCCTTGGGTTCTAACCTGTTGCCA (site AAGGTTCCTTA)”, the “recombinant barcode read abundance (log10)” value is reported as 0.0911.

In the case of “AAGTCGTCTTGGGTTCTAACCTGTTGCCT (site AAGTCGTCTAG)”, the “recombinant barcode read abundance (log10)” value is reported as 0.832.

With “AAGTCGTCTTGGGTTCTAACCTGTTGCCT (site ACGTCGTCTAG)” the “recombinant barcode read abundance (log10)” value was 0.0906.

With “AAGTCGTCTTGGGTTCTAACCTGTTGCCT (site AGGTCGTCTAG)” the “recombinant barcode read abundance (log10)” value was 0.126.

In the case of “AAGTCGTCTTGGGTTCTAACCTGTTGCCT (site ATGTCGTCTAG)”, the “recombinant barcode read abundance (log10)” value is reported as 0.0249.

With “AAGTCGTCTTGGGTTCTAACCTGTTGCTA (site AAGTCGTCTTA)” the “recombinant barcode read abundance (log10)” value was 0.857.

For “AAGTCGTCTTGGGTTCTAACCTGTTGCTA (site GCAATTGCTAG)”, the “recombinant barcode read abundance (log10)” value was 0.132.

In the case of “AAGTGCTCTTGGGTTCTAACCTGTTGCCG (site AAGTGCTCTCG)”, the “recombinant barcode read abundance (log10)” value is reported as 1.89.

For “AAGTGCTCTTGGGTTCTAACCTGTTGCCG (site AGGTGCCCTCG)”, the “recombinant barcode read abundance (log10)” value was 0.0892.

With “AAGTTTCCTTGGGTTCTAACCTGTTGCAT (site AAGTGTCCTAT)” the “recombinant barcode read abundance (log10)” value was 0.118.

With “AAGTTTCCTTGGGTTCTAACCTGTTGCAT (site AAGTTTCCTAT)” the “recombinant barcode read abundance (log10)” value was 0.22.

For “AATAACTCTTGGGTTCTAACCTGTTGCCT (site AATAACTCTAG)”, the “recombinant barcode read abundance (log10)” value was 0.863.

In the case of “AATAACTCTTGGGTTCTAACCTGTTGCCT (site CATAACTCTAG)”, the “recombinant barcode read abundance (log10)” value is reported as 0.0701.

For “AATAACTCTTGGGTTCTAACCTGTTGCCT (site GATAACTCTAG)”, the “recombinant barcode read abundance (log10)” value was 0.111.

With “AATAACTCTTGGGTTCTAACCTGTTGCCT (site TATAACTCTAG)” the “recombinant barcode read abundance (log10)” value was 0.139.

With “AATAAGTCTTGGGTTCTAACCTGTTGCCT (site AATAAGTCTAG)” the “recombinant barcode read abundance (log10)” value was 0.483.

For “AATAAGTCTTGGGTTCTAACCTGTTGCCT (site ACTAAGTCTAG)”, the “recombinant barcode read abundance (log10)” value was 0.0757.

In the case of “AATAAGTCTTGGGTTCTAACCTGTTGCCT (site AGTAAGTCTAG)”, the “recombinant barcode read abundance (log10)” value is reported as 0.566.

With “AATAAGTCTTGGGTTCTAACCTGTTGCCT (site ATTAAGTCTAG)” the “recombinant barcode read abundance (log10)” value was 0.122.

With “AATAGAGCTTGGGTTCTAACCTGTTGCAG (site AAGTGAGCTCT)” the “recombinant barcode read abundance (log10)” value was 0.0557.

With “AATAGAGCTTGGGTTCTAACCTGTTGCAG (site AATAGAGCTCT)” the “recombinant barcode read abundance (log10)” value was 2.23.
